# Laboratory results: publication PMC10757358 (The Journal of steroid biochemistry and molecular biology, 2023)
# What was measured:
# CYP11A1 [1] = biological target: T1, CYP11A1 (Homo sapiens, UniProt P05108); assay: biochemical
# CYP11B2 [2] = conditions: read-out: reported IC50, CYP11B2; in-vitro studies; cited from earlier work
# CYP11A1 [3] = biological target: T1, CYP11A1
# [4] = tested on: NCI-H295R human adrenocortical cancer cell line; conditions: NCI-H295R cells
# CYP11B1 [5] = conditions: read-out: reported IC50, CYP11B1; in-vitro studies; cited from earlier work
# CYP11B1 [6] = biological target: T2, CYP11B1 (Homo sapiens, UniProt P15538); assay: biochemical
# T2 sequence (P15538 25-503): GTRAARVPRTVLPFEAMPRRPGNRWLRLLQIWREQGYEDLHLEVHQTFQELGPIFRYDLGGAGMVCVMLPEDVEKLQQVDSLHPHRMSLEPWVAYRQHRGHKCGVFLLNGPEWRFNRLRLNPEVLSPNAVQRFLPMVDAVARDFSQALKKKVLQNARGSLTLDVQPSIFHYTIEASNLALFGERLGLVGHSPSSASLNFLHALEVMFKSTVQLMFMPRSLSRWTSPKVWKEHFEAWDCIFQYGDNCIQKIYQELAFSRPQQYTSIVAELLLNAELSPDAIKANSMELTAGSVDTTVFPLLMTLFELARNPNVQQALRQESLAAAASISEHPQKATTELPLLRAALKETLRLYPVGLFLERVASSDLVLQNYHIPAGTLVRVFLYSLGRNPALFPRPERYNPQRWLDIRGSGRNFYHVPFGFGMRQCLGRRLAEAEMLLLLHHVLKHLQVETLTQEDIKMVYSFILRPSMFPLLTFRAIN
# CYP11B2 [7] = biological target: T3, CYP11B2 (Homo sapiens, UniProt P19099); assay: biochemical
# T3 sequence (P19099 25-503): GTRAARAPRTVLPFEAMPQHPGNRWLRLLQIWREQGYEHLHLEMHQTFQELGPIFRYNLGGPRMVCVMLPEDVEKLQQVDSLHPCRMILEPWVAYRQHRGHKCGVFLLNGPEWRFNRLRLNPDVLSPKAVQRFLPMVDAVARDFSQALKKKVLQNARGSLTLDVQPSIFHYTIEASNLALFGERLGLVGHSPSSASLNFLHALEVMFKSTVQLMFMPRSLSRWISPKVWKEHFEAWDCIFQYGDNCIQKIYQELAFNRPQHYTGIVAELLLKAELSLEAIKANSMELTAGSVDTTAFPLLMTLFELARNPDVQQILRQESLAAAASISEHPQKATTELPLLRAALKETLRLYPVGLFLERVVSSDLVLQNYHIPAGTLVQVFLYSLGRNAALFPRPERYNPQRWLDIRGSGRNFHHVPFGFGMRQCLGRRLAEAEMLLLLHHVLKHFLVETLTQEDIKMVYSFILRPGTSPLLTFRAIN
# T1 sequence (P05108 40-521): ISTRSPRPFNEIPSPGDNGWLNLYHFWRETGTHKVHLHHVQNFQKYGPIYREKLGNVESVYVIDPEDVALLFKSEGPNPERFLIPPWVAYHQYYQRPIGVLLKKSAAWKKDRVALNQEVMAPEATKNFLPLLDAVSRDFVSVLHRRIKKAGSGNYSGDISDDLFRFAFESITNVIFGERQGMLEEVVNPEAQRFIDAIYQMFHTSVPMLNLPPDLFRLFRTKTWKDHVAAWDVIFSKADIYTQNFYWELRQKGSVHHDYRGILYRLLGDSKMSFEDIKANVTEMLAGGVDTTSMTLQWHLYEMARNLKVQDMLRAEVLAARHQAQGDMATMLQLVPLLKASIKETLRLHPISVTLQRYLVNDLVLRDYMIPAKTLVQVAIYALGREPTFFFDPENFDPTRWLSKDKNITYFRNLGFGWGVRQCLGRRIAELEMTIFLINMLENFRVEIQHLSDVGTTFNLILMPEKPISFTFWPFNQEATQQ
smiles,measurement,setting,value
"N#Cc1ccc([C@H]2CCc3cncn32)c(F)c1 [LCI699, Osilodrostat]",Kd,CYP11A1 [1],18800 nM
same,inhibition,CYP11A1 [3],< 25%
same,"aldosterone production, % of baseline","[4]; 0-1000 nM LCI699, 24 h",2 ± 3%
same,androstenedione level,"[4]; 0-1000 nM LCI699, 24 h",remained unchanged
same,"corticosterone, % of the baseline","[4]; 0-1000 nM LCI699, 24 h",1 ± 2%
same,"cortisol production, % of baseline","[4]; 0-1000 nM LCI699, 24 h",13 ± 4%
same,11-deoxycortisol level,"[4]; higher concentrations of LCI699, changes did not reach statistical significance",appeared to increase
"C[C@]12CC[C@H]3[C@@H](CCC4=CC(=O)CC[C@@]43C)[C@@H]1CC[C@@H]2C(=O)CO [DOC, 11-deoxycorticosterone]",Kd,CYP11B1 [6],420 nM
same,Kd,CYP11B2 [7],270 nM
